Assay results published in US10508088B2, “Methods using HDAC11 inhibitors” (FORMA Therapeutics, Inc., priority 2016, dated 2019).

Target: Recombinant N-terminal GST tag full-length human HDAC11 (Homo sapiens (Human), UniProt Q96DB2)
Test: Probe binding HDAC11 assay, time resolved fluorescence (TRF)
Conditions: read-out: HDAC11 IC50 Range
Description: The probe binding HDAC11 assay was performed using a time resolved fluorescence (TRF) assay format. Recombinant N-terminal GST tag full-length human HDAC11 was expressed and purified from baculovirus in Sf9 insect cells (SignalChem, # H93-30G-1000). Each assay was performed in 1536 black well microplates (Corning, #3936) in a final volume of 8 μL in assay buffer containing 50 mM HEPES (pH 7.5), 50 mM KCl, 50 mM NaCl, 0.5 mM GSH (L-Glutathione reduced, Sigma #G4251), 0.03% BGG (0.22 μM filtered, Sigma, #G7516-25G), and 0.01% Triton X-100 (Sigma, #T9284-10L). 100 nL of 10-point, 3-fold serial dilution in DMSO was pre-dispensed into respective wells of 1536 assay plates for a final test concentration range of 25 μM to 1.3 nM respectively. The final concentration in the assay of HDAC11 and probe (a fluorescein labeled HDAC 11 inhibitor) was 2.5 nM and 20 nM respectively. 4 μL of 2× probe and 2× anti-GST Terbium (Cisbio, #61GSTXLB) was added to assay plates followed by 4 μL of 2×HDAC11. Plates were incubated for 16 hours at room temperature before time resolved fluorescence was read on the Envision (Excitation at 340 nm, and Emission at 485 nm and 535 nm, Perkin Elmer).
Data from HDAC11 Assays were reported as percent inhibition (inh) compared with control wells based on the following equation: % inh=1−((FLU−AveLow)/(AveHigh−AveLow)) where FLU=measured time resolved fluorescence. AveLow=average time resolved fluorescence of no enzyme control (n=32). AveHigh=average time resolved fluorescence of DMSO control (n=32). IC50 values were determined by curve fitting of the standard 4 parameter logistic fitting algorithm included in the Activity Base software package: IDBS XE Designer Model205. Data is fitted using the Levenburg Marquardt algorithm.

Sequence of Recombinant N-terminal GST tag full-length human HDAC11 (Q96DB2 whole entry): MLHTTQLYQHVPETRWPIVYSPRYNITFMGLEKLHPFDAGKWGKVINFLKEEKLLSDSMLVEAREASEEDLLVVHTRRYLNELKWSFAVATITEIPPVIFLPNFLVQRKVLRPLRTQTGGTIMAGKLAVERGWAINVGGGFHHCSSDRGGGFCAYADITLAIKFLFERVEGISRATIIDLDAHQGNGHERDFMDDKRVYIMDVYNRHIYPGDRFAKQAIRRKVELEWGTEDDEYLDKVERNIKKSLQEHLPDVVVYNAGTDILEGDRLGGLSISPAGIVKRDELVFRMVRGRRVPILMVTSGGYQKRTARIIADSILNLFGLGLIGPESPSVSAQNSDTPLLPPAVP

SMILES: Cn1ncc2ccc(-c3cc4[nH]c(Nc5cccc(C(=O)NO)c5)nc4cc3C(F)(F)F)cc21 [Example 36-17, N-hydroxy-3-((6-(1-methyl-1H-indazol-6-yl)-5-(trifluoromethyl)-1H-benzo[d]imidazol-2-yl)amino)benzamide]
- IC50: < 500 nM

SMILES: O=C(NO)c1cccc(Cc2nc3cc(Cl)c(Cl)cc3[nH]2)c1 [Example 27-2, 3-((5,6-dichloro-1H-benzo[d]imidazol-2-yl)methyl)-N-hydroxybenzamide]
- IC50: < 500 nM

SMILES: O=C(NO)c1cccc(Nc2nc3cc(Cl)c([N+](=O)[O-])cc3[nH]2)c1 [Example 33-15, 3-((5-chloro-6-nitro-1H-benzo[d]imidazol-2-yl)amino)-N-hydroxybenzamide]
- IC50: < 500 nM

SMILES: COCCn1c(Nc2cccc(C(=O)NO)c2)nc2cc(C(F)(F)F)c(C#N)cc21 [Example 18-1, 3-(6-cyano-1-(2-methoxyethyl)-5-(trifluoromethyl)-1H-benzo[d]imidazol-2-ylamino)-N-hydroxybenzamide]
- IC50: < 500 nM

SMILES: Cn1c(Nc2cccc(C(=O)NO)c2)nc2cc(F)c(C#N)cc21 [Example 12-1, 3-(6-cyano-5-fluoro-1-methyl-1H-benzo[d]imidazol-2-ylamino)-N-hydroxybenzamide]
- IC50: < 500 nM

SMILES: NCCCCCn1c(Nc2cccc(C(=O)NO)c2)nc2cc(Cl)c(Cl)cc21 [Example 22-1, 3-((1-(5-aminopentyl)-5,6-dichloro-1H-benzo[d]imidazol-2-yl)amino)-N-hydroxybenzamide]
- IC50: < 500 nM

SMILES: O=C1COc2cc3[nH]c(Nc4cccc(C(=O)NO)c4)nc3cc2N1 [Example 33-18, N-hydroxy-3-((7-oxo-3,6,7,8-tetrahydroimidazo[4′,5′:4,5]benzo[1,2-b][1,4]oxazin-2-yl)amino)benzamide]
- IC50: > 1000 nM

SMILES: O=C(NO)c1cccc(Nc2nc3cc(Br)c(C(F)(F)F)cc3[nH]2)c1 [Example 33-11, 3-((5-bromo-6-(trifluoromethyl)-1H-benzo[d]imidazol-2-yl)amino)-N-hydroxybenzamide]
- IC50: < 500 nM

SMILES: Cn1c(Nc2cccc(C(=O)NO)c2)nc2cc(C(F)(F)F)c(C#N)cc21 [Example 11-1, 3-(6-cyano-1-methyl-5-(trifluoromethyl)-1H-benzo[d]imidazol-2-ylamino)-N-hydroxybenzamide]
- IC50: < 500 nM

SMILES: O=C(NO)c1cccc(Nc2nc3cc(C(F)(F)F)c(-c4cnc(N5CCOCC5)nc4)cc3[nH]2)c1 [Example 36-13, N-hydroxy-3-((6-(2-morpholinopyrimidin-5-yl)-5-(trifluoromethyl)-1H-benzo[d]imidazol-2-yl)amino)benzamide]
- IC50: < 500 nM

SMILES: O=C(NO)c1cccc(Nc2nc3cc(C(F)(F)F)c(-c4cc(F)ccc4CO)cc3[nH]2)c1 [Example 36-15, 3-((6-(5-fluoro-2-(hydroxymethyl)phenyl)-5-(trifluoromethyl)-1H-benzo[d]imidazol-2-yl)amino)-N-hydroxybenzamide]
- IC50: < 500 nM

SMILES: COCCn1c(Nc2cccc(C(=O)NO)c2)nc2ccccc21 [Example 23-1, N-hydroxy-3-((1-(2-methoxyethyl)-1H-benzo[d]imidazol-2-yl)amino)benzamide]
- IC50: > 1000 nM

SMILES: O=C(NO)c1cccc(Nc2nc3cc(F)c(Cl)cc3[nH]2)c1 [Example 33-1, 3-((6-chloro-5-fluoro-1H-benzo[d]imidazol-2-yl)amino)-N-hydroxybenzamide]
- IC50: < 500 nM

SMILES: Cn1c(Nc2cccc(C(=O)NO)c2)nc2cc(C#N)c(C(F)(F)F)cc21 [Example 10-1, 3-(5-cyano-1-methyl-6-(trifluoromethyl)-1H-benzo[d]imidazol-2-ylamino)-N-hydroxybenzamide]
- IC50: < 500 nM

SMILES: O=C(NO)c1cccc(Nc2nc3cc(-c4ccccc4)c(C(F)(F)F)cc3[nH]2)c1 [Example 36-1, N-hydroxy-3-((5-phenyl-6-(trifluoromethyl)-1H-benzo[d]imidazol-2-yl)amino)benzamide]
- IC50: < 500 nM

SMILES: O=C(NO)c1cccc(Nc2nc3cc(-c4ccncc4)c(C(F)(F)F)cc3[nH]2)c1 [Example 36-3, N-hydroxy-3-((5-(pyridin-4-yl)-6-(trifluoromethyl)-1H-benzo[d]imidazol-2-yl)amino)benzamide]
- IC50: < 500 nM

SMILES: CC(C)n1c(Nc2cccc(C(=O)NO)c2)nc2cc(C#N)c(C(F)(F)F)cc21 [Example 15-1, 3-(5-cyano-1-isopropyl-6-(trifluoromethyl)-1H-benzo[d]imidazol-2-ylamino)-N-hydroxybenzamide]
- IC50: < 500 nM

SMILES: N#Cc1cc2nc(Oc3cccc(C(=O)NO)c3)[nH]c2cc1C(F)(F)F [Example 26-1, 3-((5-cyano-6-(trifluoromethyl)-1H-benzo[d]imidazol-2-yl)oxy)-N-hydroxybenzamide]
- IC50: > 1000 nM

SMILES: Cn1c(Nc2cccc(C(=O)NO)c2)nc2cc(C(F)(F)F)c(-c3cccnc3)cc21 [Example 35-2, N-hydroxy-3-((1-methyl-6-(pyridin-3-yl)-5-(trifluoromethyl)-1H-benzo[d]imidazol-2-yl)amino)benzamide]
- IC50: < 500 nM

SMILES: COCCn1c(Nc2cccc(C(=O)NO)c2)nc2cc(C#N)c(C(F)(F)F)cc21 [Example 19-1, 3-(5-cyano-1-(2-methoxyethyl)-6-(trifluoromethyl)-1H-benzo[d]imidazol-2-ylamino)-N-hydroxybenzamide]
- IC50: < 500 nM

SMILES: Cn1c(Nc2cccc(C(=O)NO)c2)nc2cc(C(F)(F)F)c(-c3ccccc3)cc21 [Example 35-3, N-hydroxy-3-((1-methyl-6-phenyl-5-(trifluoromethyl)-1H-benzo[d]imidazol-2-yl)amino)benzamide]
- IC50: < 500 nM

SMILES: O=C(NO)c1cccc(Nc2nc3cc(F)c(F)cc3[nH]2)c1 [Example 33-3, 3-((5,6-difluoro-1H-benzo[d]imidazol-2-yl)amino)-N-hydroxybenzamide]
- IC50: 500 to 1000 nM

SMILES: Cn1c(Nc2cccc(C(=O)NO)c2)nc2cc(-c3cccnc3)c(C(F)(F)F)cc21 [Example 35-1, N-hydroxy-3-((1-methyl-5-(pyridin-3-yl)-6-(trifluoromethyl)-1H-benzo[d]imidazol-2-yl)amino)benzamide]
- IC50: 500 to 1000 nM

SMILES: CS(=O)(=O)c1ccc2[nH]c(Nc3cccc(C(=O)NO)c3)nc2c1 [Example 33-23, N-hydroxy-3-((5-(methylsulfonyl)-1H-benzo[d]imidazol-2-yl)amino)benzamide]
- IC50: > 1000 nM

SMILES: COCCn1c(Nc2cccc(C(=O)NO)c2)nc2cc(-c3ccccc3)c(C(F)(F)F)cc21 [Example 20-2, N-hydroxy-3-((1-(2-methoxyethyl)-5-phenyl-6-(trifluoromethyl)-1H-benzo[d]imidazol-2-yl)amino)benzamide]
- IC50: < 500 nM

SMILES: O=C(NO)c1cccc(Nc2nc3cc([N+](=O)[O-])ccc3[nH]2)c1 [Example 33-21, N-hydroxy-3-((5-nitro-1H-benzo[d]imidazol-2-yl)amino)benzamide]
- IC50: 500 to 1000 nM

SMILES: COCc1ccc(-c2cc3[nH]c(Nc4cccc(C(=O)NO)c4)nc3cc2C(F)(F)F)cc1 [Example 36-7, N-hydroxy-3-((6-(4-(methoxymethyl)phenyl)-5-(trifluoromethyl)-1H-benzo[d]imidazol-2-yl)amino)benzamide]
- IC50: < 500 nM

SMILES: COCCn1c(Nc2cccc(C(=O)NO)c2)nc2cc(C(F)(F)F)c(-c3ccccc3)cc21 [Example 20-1, N-hydroxy-3-(1-(2-methoxyethyl)-6-phenyl-5-(trifluoromethyl)-1H-benzo[d]imidazol-2-ylamino)benzamide]
- IC50: < 500 nM

SMILES: CC(C)n1c(Nc2cccc(C(=O)NO)c2)nc2cc(-c3ccccc3)c(C(F)(F)F)cc21 [Example 16-2, N-hydroxy-3-((1-isopropyl-5-phenyl-6-(trifluoromethyl)-1H-benzo[d]imidazol-2-yl)amino)benzamide]
- IC50: < 500 nM

SMILES: O=C(NO)c1cccc(Nc2nc3cc(F)c(C(F)(F)F)cc3[nH]2)c1 [Example 33-5, 3-((5-fluoro-6-(trifluoromethyl)-1H-benzo[d]imidazol-2-yl)amino)-N-hydroxybenzamide]
- IC50: < 500 nM

SMILES: O=C(NO)c1cccc(Nc2nc3cc(C(F)(F)F)ccc3[nH]2)c1 [Example 33-22, N-hydroxy-3-((5-(trifluoromethyl)-1H-benzo[d]imidazol-2-yl)amino)benzamide]
- IC50: < 500 nM

SMILES: CC(C)n1c(Nc2cccc(C(=O)NO)c2)nc2cc(C(F)(F)F)c(-c3ccccc3)cc21 [Example 16-1, N-hydroxy-3-(1-isopropyl-6-phenyl-5-(trifluoromethyl)-1H-benzo[d]imidazol-2-ylamino)benzamide]
- IC50: < 500 nM

SMILES: O=C(NO)c1cccc(Nc2nc3ccccc3[nH]2)c1 [Example 8-1, 3-(1H-benzo[d]imidazol-2-ylamino)-N-hydroxybenzamide]
- IC50: > 1000 nM

SMILES: CS(=O)(=O)c1cc2nc(Nc3cccc(C(=O)NO)c3)[nH]c2cc1C(F)(F)F [Example 7-1, N-hydroxy-3-(6-(methylsulfonyl)-5-(trifluoromethyl)-1H-benzo[d]imidazol-2-ylamino)benzamide]
- IC50: < 500 nM
